“And” between values parts separate entries of the source, which are not always exact repeats. Equal values may be shown once. Values belong to the compound of their own block, whether it stands above or below them. Non-standard residues stand in square brackets, D forms with d. Residues, ends and D or L forms follow the SMILES beside them. ξ: configuration not given here. *: point of attachment. X1 = NCCCC[C@H](N)C(=O)NCCCC[C@H](NC(=O)[C@@H](N)CCCCN)C(=O)*; ξGly(dodecyl) = CCCCCCCCCCCCC(N)C(=O)O
Key:
[1] = tested on: Human Embryonic Kidney (HEK) 293 cells; assay: Transient transfection of HEK 293 cells with GABAA receptor α1 subunit cDNA; format: cell-based; settings: […] compound 1a
Description: Human Embryonic Kidney (HEK) 293 cells were sub-cultured onto poly-L-lysine coated 35 mm petri dishes such that 24 h later the cells were still sub-confluent. Culture media was replaced on the morning of the transfection procedure. Cells were returned to the CO2—incubator ([…]/95% air) for 3 h.
Compound 1a was incubated with a GABAA receptor αl subunit cDNA-pCDM8 (Mammalian cell expression vector Thompson C. L. et al Neuroscience Let. 144 53–56 (1992)) construct (Fc2 μg/ml) in DMEM at weight ratios of 1:1, 10:1 and 100:1 (1a:α1 cDNA) for 30 minutes prior to transfection.
Cells were washed 3× with serum-free DMEM prior to application of compound 1a/GABAA receptor α subunit cDNA-vector (1ml/dish). Dishes were returned to the incubator (37° C.) for 5 h. Media was then supplemented with DMEM/10% FCS (1 ml/dish), returned to the incubator for 24 h. […]
24 h later the cells were washed 3× with phosphate-buffered saline and then fixed with methanol (−20° C., 25 min, 2 dishes from each regime) or 4% parafarmaldehyde (room temp., 15 min, 2 dishes from each regime). The cells were then processed for GABAA receptor α1 subunit-like immunoreactivity according to Thompson et al. Immunoreactivity was detected by diaminobenzidine staining and visualised under the light microscope.

[2] = In vivo distribution of 3H-dendrimer (liquid scintillation counting); design: species or system C57BL/6 mice
Description: Tritiated dendrimer synthesised as described in Example 1 above except 3H labelled BOC-lysine was prepared quantitatively from 3H-lysine purchased commercially based on the method of Keller et al Organ. Synth. 63, 160–170 (1985) (1a: Specific Activity 31Bq/ug @ 5 μg/μl in dH20) were made up to 1.2 μg/μl with 0.9% w/v sodium chloride BP. For each animal, complexes were formed at room temperature by adding 5 μg pCEP4hFIXint (as used in Example 11) in 100 μl 0.9% sodium chloride BP) dropwise to 100 μl dendrimer solution (dendrimer:DNA charge ratio about 4:1) with moderate vortexing. The complexes were then sonicated on ice with a hand-held probe at low power setting several times with three second pulses.
Male C57BL/6mice (8–10 weeks) were divided into two groups. The first group (n=8) were given approx. 150–200 μl of the complexes (exact dose determined by difference in weight of syringe pre/post injection) via tail vein injection. The second (n=4) were administered 150 μl of the complexes in a dosed food particle (isolation/observation confirmed ingestion of the food particle). At time-points 2 hours, 24 hours, 4 days, 7 days (group 1) and 24 hours, and 7 days (group 2) the mice were sacrificed and organs/fluids harvested. Blood and urine were collected when possible post mortem, the former in citrate tubes. Organs were weighed and immediately immersed in liquid nitrogen cooled isopentane to be kept at −80° C.
Organ samples for liquid scintillation counting (for detecting dendrimer) were processed as per “Packard Counting Solutions” protocol for samples <30 mg using Solvable (Packard) for all tissues except blood, urine and digestive tract tissues that were dissolved using Soluene-350 (Packard). The LSC cocktail used was Ultima Gold. Counting time was 10 minutes. Detection of episomal DNA was performed by PCR using primers that amplified a 460 bp section of the plasmid of the 3′ end of hFIX cDNA and the SV40 pA region

Rat red blood cells = assay: RBC lysis, compound alone or complexed with pSVβgal; settings: pSVβgal 0.0125 μg/μl, 1 hour at 37° C.
Description: Rat red blood cells were obtained by centrifugation of complete blood. A 2% suspension of cells was made in phosphate buffered saline. […] The lysate supernatant was recovered by centrifugation and the absorbance measured at 540 nm. (Concentration of pSVβgal was 0.0125 μg/μl).

SMILES: CCCCCCCCCCCCC(NC(=O)C(CCCCCCCCCCCC)NC(=O)C(CCCCCCCCCCCC)NC(=O)[C@H](CCCCNC(=O)[C@H](CCCCNC(=O)[C@@H](N)CCCCN)NC(=O)[C@@H](N)CCCCN)NC(=O)[C@H](CCCCNC(=O)[C@@H](N)CCCCN)NC(=O)[C@@H](N)CCCCN)C(N)=O (some centres unmarked) [Compound 1a] (H-KK(Lys)K(X1)[ξGly(dodecyl)][ξGly(dodecyl)][ξGly(dodecyl)]-NH2)
cell viability [1]: deleterious to cell viability
% age Total Dose, Heart ([2]; Oral, 24 hours): 0.53%
% age Total Dose, Kidney ([2]; Oral, 24 hours): 0.52% and 0.29%
% age Total Dose, Liver ([2]; Oral, 24 hours): 3.70% and 1.84%
% age Total Dose, Lungs ([2]; Oral, 24 hours): 0.78%
% age Total Dose, Spleen ([2]; Oral, 24 hours): 0.16% and 0.13%
% age Total Dose, Urine ([2]; Oral, 24 hours): 0.48% and 0.75%
% age Total Dose, Heart ([2]; i.v., 2 hours): 0.22% and 0.06%
% age Total Dose, Kidney ([2]; i.v., 2 hours): 0.34% and 0.48%
% age Total Dose, Liver ([2]; i.v., 2 hours): 10.35% and 2.07%
% age Total Dose, Lungs ([2]; i.v., 2 hours): 0.47% and 0.13%
% age Total Dose, Spleen ([2]; i.v., 2 hours): 1.00% and 0.30%
Activity, Urine ([2]; i.v., 2 hours): (21 Bq/0.1 ml)
% age Total Dose, Heart ([2]; i.v., 24 hours): 0.80% and 4.89%
% age Total Dose, Kidney ([2]; i.v., 24 hours): 0.57% and 1.63%
% age Total Dose, Liver ([2]; i.v., 24 hours): 8.05% and 0.71%
% age Total Dose, Spleen ([2]; i.v., 24 hours): 0.61% and 0.07%
% age Total Dose, Urine ([2]; i.v., 24 hours): 0.52%
% age Total Dose, Heart ([2]; i.v., 4 days): 1.48%
% age Total Dose, Lungs ([2]; i.v., 4 days): 0.95%
% age Total Dose, Muscle ([2]; i.v., 4 days): 0.03%
% age Total Dose, Spleen ([2]; i.v., 4 days): 0.18%
% age Total Dose, Urine ([2]; i.v., 4 days): 1.3%
% age Total Dose, Heart ([2]; i.v., 7 days): 1.53%
% age Total Dose, Kidney ([2]; i.v., 7 days): 0.89% and 5.68%
% age Total Dose, Liver ([2]; i.v., 7 days): 2.91% and 6.53%
% age Total Dose, Lungs ([2]; i.v., 7 days): 0.16%
% age Total Dose, Spleen ([2]; i.v., 7 days): 0.53% and 0.51%

effect of complexing to DNA on erythrocyte lysis (Rat red blood cells): reduces levels of erythrocyte lysis
SMILES: CCCCCCCCCCCCC(NC(=O)C(CCCCCCCCCCCC)NC(=O)C(CCCCCCCCCCCC)NC(=O)[C@H](CCCCNC(=O)[C@H](CCCCNC(=O)[C@H](CCCCNC(=O)[C@@H](N)CCCCN)NC(=O)[C@@H](N)CCCCN)NC(=O)[C@H](CCCCNC(=O)[C@@H](N)CCCCN)NC(=O)[C@@H](N)CCCCN)NC(=O)[C@H](CCCCNC(=O)[C@H](CCCCNC(=O)[C@@H](N)CCCCN)NC(=O)[C@@H](N)CCCCN)NC(=O)[C@H](CCCCNC(=O)[C@@H](N)CCCCN)NC(=O)[C@@H](N)CCCCN)C(N)=O (some centres unmarked) [Compound 1b]

From patent US7081495B1, “Cationic compounds and their use as macro molecular carriers” (School of Pharmacy, University of London, priority 1998, dated 2006)
